# From patent US8168667B2 (Galapagos NV, priority 2006, dated 2012)
# Where two headings read alike, the source gives them in different places.
# Target: T1, human androgen receptor (hAR) (Homo sapiens, UniProt P10275)
# T1 sequence (P10275 1-920): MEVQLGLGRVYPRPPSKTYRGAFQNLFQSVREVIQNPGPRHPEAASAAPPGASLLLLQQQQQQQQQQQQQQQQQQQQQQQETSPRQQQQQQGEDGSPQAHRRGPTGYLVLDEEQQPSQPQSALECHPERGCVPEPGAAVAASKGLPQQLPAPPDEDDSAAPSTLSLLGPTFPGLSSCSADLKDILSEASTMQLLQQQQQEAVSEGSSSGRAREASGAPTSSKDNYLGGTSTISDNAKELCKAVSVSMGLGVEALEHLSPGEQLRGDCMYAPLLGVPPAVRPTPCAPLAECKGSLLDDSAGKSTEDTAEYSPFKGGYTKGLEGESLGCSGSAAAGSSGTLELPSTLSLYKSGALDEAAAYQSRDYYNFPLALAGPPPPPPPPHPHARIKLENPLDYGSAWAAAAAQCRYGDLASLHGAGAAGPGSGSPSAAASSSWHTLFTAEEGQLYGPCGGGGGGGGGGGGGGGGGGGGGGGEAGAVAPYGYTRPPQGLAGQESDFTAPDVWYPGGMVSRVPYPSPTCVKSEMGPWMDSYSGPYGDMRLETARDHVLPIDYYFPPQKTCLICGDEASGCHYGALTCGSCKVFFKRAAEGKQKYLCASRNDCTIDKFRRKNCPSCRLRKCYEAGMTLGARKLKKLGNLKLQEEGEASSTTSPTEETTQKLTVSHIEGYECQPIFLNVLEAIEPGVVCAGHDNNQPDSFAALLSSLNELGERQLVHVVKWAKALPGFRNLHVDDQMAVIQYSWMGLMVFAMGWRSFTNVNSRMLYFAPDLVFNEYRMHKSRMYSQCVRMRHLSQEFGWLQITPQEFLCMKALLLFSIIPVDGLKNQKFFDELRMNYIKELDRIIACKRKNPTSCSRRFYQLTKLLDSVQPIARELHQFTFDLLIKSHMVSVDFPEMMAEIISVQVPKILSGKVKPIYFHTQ
# Test: Functional response test: hAR transactivation (luciferase reporter) in HALP2 cells
# Assay type: cell-based
# Conditions: for EC50: agonism, HALP2 cells (HeLa, hAR + ARE-luciferase), 20 hours at 37° C.
# How it was run: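 HALP2 cells are HeLa cells stably transfected with CMV-driven hAR and a probasin ARE-luciferase reporter. They were seeded 24 h ahead, then exposed to compounds for 20 hours at 37° C in phenol red-free DMEM with 5% desteroided serum. Luciferase luminescence was measured after lysis; for antagonist mode, compounds were tested against increasing DHT concentrations.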
# [1] = antagonism, concentration which increases the EC50 of the DHT by a factor of 2, Schild regression, HALP2 cells
EC50 [nM],KSchild (nM) potency [1] [nM],SMILES,KSchild (nM) potency [nM]
,,"Cc1ccc(S(=O)(=O)N2C(=O)N(c3ccc(C#N)c(C(F)(F)F)c3)C(=O)C2(C)c2ccc(O)cc2)cc1 (stereo not drawn) [Example 243.2, 4-[2,5-dioxo-4-(4-hydroxyphenyl)-4-methyl-3-[(4-methylphenyl)sulphonyl]imidazolidin-1-yl]-2-trifluoromethylbenzonitrile]",150
,,CN1C(=O)N(c2ccc([N+](=O)[O-])c(C(F)(F)F)c2)C(=O)C1c1ccc(O)cc1 (stereo not drawn) [Example 45],100
34.6,34.64,CCOCCCN1C(=O)N(c2ccc(F)c(Cl)c2)C(=O)C1c1ccc(O)cc1 (stereo not drawn) [Example 88],
60,60,"CN1C(=O)N(c2ccc(C(F)(F)F)cc2Cl)C(=O)C1(C)c1ccc(O)cc1 (stereo not drawn) [Example 29, 1-(2-chloro-4-trifluoromethylphenyl)-3,4-dimethyl-4-(4-hydroxyphenyl)imidazolidine-2,5-dione]",
,,"Cc1cc(C#N)ccc1N1C(=O)N(C)C(C)(c2ccc(O)cc2)C1=O (stereo not drawn) [Example 36, 4-[3,4-dimethyl-2,5-dioxo-4-(4-hydroxyphenyl)imidazolidin-1-yl]-3-methylbenzonitrile]",69.28
,,"CCCC1(c2ccc(O)cc2)C(=O)N(c2ccc(C#N)c(C(F)(F)F)c2)C(=O)N1C (stereo not drawn) [Example 182.1, 4-[2,5-dioxo-4-(4-hydroxyphenyl)-3-methyl-4-propylimidazolidin-1-yl]-2-trifluoromethylbenzonitrile]",15
,,CC1(c2ccc(O)cc2)C(=O)N(c2ccc(C#N)c(C(F)(F)F)c2)C(=O)N1CCC#N (stereo not drawn) [Example 149],60
122,122.47,O=C1C(c2ccc(O)cc2)N(CCCCO)C(=O)N1c1ccc(Cl)c(C(F)(F)F)c1 (stereo not drawn) [Example 134],
,,N#CCCN1C(=O)N(c2ccc([N+](=O)[O-])cc2)C(=O)C1c1ccc(O)cc1 (stereo not drawn) [Example 129],34.64
60,60,CC1(c2ccc(O)cc2)C(=O)N(c2ccc(Cl)c(Cl)c2)C(=O)N1CCC#N (stereo not drawn) [Example 145],
632,632.46,N#CCN1C(=O)N(c2ccc(F)c(Cl)c2)C(=O)C1c1ccc(O)cc1 (stereo not drawn) [Example 95],
34.6,34.64,CCCN1C(=O)N(c2ccc(F)c(F)c2)C(=O)C1c1ccc(O)cc1 (stereo not drawn) [Example 56],
,,"COC(=O)CCN1C(=O)N(c2ccc(C#N)c(C(F)(F)F)c2)C(=O)C1(C)c1ccc(O)cc1 (stereo not drawn) [Example 234, 4-[2,5-dioxo-4-(4-hydroxyphenyl)-3-[2-(methoxycarbonyl)ethyl]-4-methylimidazolidin-1-yl]-2-trifluoromethylbenzonitrile]",15
,,CCOC(=O)CCN1C(=O)N(c2ccc([N+](=O)[O-])cc2)C(=O)C1c1ccc(O)cc1 (stereo not drawn) [Example 81],16.38
,,"CN1C(=S)N(c2ccc(C#N)c(C(F)(F)F)c2)C(=O)C1(C)c1ccc(O)cc1 (stereo not drawn) [Example 44, 4-[3,4-dimethyl-4-(4-hydroxyphenyl)-5-oxo-2-thioxoimidazolidin-1-yl]-2-trifluoromethylbenzonitrile]",4
,,CCOCCCN1C(=O)N(c2ccc(C#N)c(C(F)(F)F)c2)C(=O)C1c1ccc(O)cc1 (stereo not drawn) [Example 82],30
,,"CC(=O)CN1C(=O)N(c2ccc(C#N)c(C(F)(F)F)c2)C(=O)C1(C)c1ccc(O)cc1 (stereo not drawn) [Example 235, 4-[2,5-dioxo-4-(4-hydroxyphenyl)-4-methyl-3-(2-oxopropyl)imidazolidin-1-yl]-2-trifluoromethylbenzonitrile]",8
30,30,"C=CCN1C(=O)N(c2ccc(F)c(F)c2)C(=O)C1c1ccc(O)cc1 (stereo not drawn) [Example 14, 1-(3,4-difluorophenyl)-4-(4-hydroxyphenyl)-3-(2-propenyl)imidazolidine-2,5-dione]",

EC50 [nM],KSchild (nM) potency [1] [nM],SMILES,KSchild (nM) potency [nM]
,,CN1C(=O)N(c2ccc([N+](=O)[O-])cc2)C(=O)C1c1ccc(O)cc1 (stereo not drawn) [Example 50],9.9
,,N#CCCN1C(=O)N(c2ccc([N+](=O)[O-])c(C(F)(F)F)c2)C(=O)C1c1ccc(O)cc1 (stereo not drawn) [Example 122],244.95
212,212.13,N#CCCN1C(=O)N(c2ccc(F)c(C(F)(F)F)c2)C(=O)C1c1ccc(O)cc1 (stereo not drawn) [Example 126],
,,"CN1C(=O)N(c2ccc(C#N)c(C(F)(F)F)c2)C(=O)C1(C)c1ccc(O)cc1F (stereo not drawn) [Example 178, 4-[3,4-dimethyl-2,5-dioxo-4-(2-fluoro-4-hydroxyphenyl)imidazolidin-1-yl]-2-trifluoromethylbenzonitrile]",10
,,"CN1C(=O)N(c2ccc(C#N)c3c2OCCO3)C(=O)C1(C)c1ccc(O)cc1 (stereo not drawn) [Example 35, 4-[3,4-dimethyl-2,5-dioxo-4-(4-hydroxyphenyl)imidazolidin-1-yl]-2,3-(1,2-ethylenedioxy)-benzonitrile]",36.34
,,"C#CCN1C(=O)N(c2ccc(Cl)c(Cl)c2)C(=O)C1(C)c1ccc(O)cc1 (stereo not drawn) [Example 21, 1-(3,4-dichlorophenyl)-4-(4-hydroxyphenyl)-4-methyl-3-(2-propynyl)imidazolidine-2,5-dione]",3
15,15,"CC1(c2ccc(O)cc2)C(=O)N(c2ccc(Cl)c(Cl)c2)C(=O)N1CCCCO (stereo not drawn) [Example 22, 1-(3,4-dichlorophenyl)-3-(4-hydroxybutyl)-4-(4-hydroxyphenyl)-4-methylimidazolidine-2,5-dione]",
,,"CCC(=O)CN1C(=O)N(c2ccc(C#N)c(C(F)(F)F)c2)C(=O)C1(C)c1ccc(O)cc1 (stereo not drawn) [Example 233, 4-[2,5-dioxo-4-(4-hydroxyphenyl)-4-methyl-3-(2-oxobutyl)imidazolidin-1-yl]-2-trifluoromethylbenzonitrile]",2.45
,,"CC1(c2ccc(O)cc2)C(=O)N(c2ccc(C#N)c(C(F)(F)F)c2)C(=O)N1C1CC1 (stereo not drawn) [Example 24.1, 4-[3-cyclopropyl-2,5-dioxo-4-(4-hydroxyphenyl)-4-methylimidazolidin-1-yl]-2-trifluoromethylbenzonitrile]",10
,,"CN1C(=O)N(c2ccc(C#N)c(O)c2)C(=O)[C@@]1(C)c1ccc(O)cc1 [Example 156.3, (R)-4-[3,4-dimethyl-2,5-dioxo-4-(4-hydroxyphenyl)imidazolidin-1-yl]-2-hydroxybenzonitrile]",30
20,20,C#CCN1C(=O)N(c2ccc(F)c(Cl)c2)C(=O)C1c1ccc(O)cc1 (stereo not drawn) [Example 70],
80,80,"CCCN1C(=O)N(c2ccc(F)c(Cl)c2)C(=O)C1c1ccc(O)cc1 (stereo not drawn) [Example 11, 1-(3-chloro-4-fluorophenyl)-4-(4-hydroxyphenyl)-3-propylimidazolidine-2,5-dione]",
69.3,69.28,O=C1C(c2ccc(O)cc2)N(Cc2ccc3c(c2)OCO3)C(=O)N1c1ccc(Cl)c(Cl)c1 (stereo not drawn) [Example 99],
424,424.26,CN(C)CCN1C(=O)N(c2cccc(C(F)(F)F)c2)C(=O)C1c1ccc(O)cc1 (stereo not drawn) [Example 120],
,,C#CCN1C(=O)N(c2ccc([N+](=O)[O-])c(C(F)(F)F)c2)C(=O)C1c1ccc(O)cc1 (stereo not drawn) [Example 71],300
300,300,CC1(c2ccc(O)cc2)C(=O)N(c2ccc(Cl)c(Cl)c2)C(=O)N1CCCO (stereo not drawn) [Example 147],
300,300,"CN1C(=O)N(c2ccc(Cl)c3ccccc23)C(=O)C1(C)c1ccc(O)cc1 (stereo not drawn) [Example 32, 1-(4-chloronaphthyl)-3,4-dimethyl-4-(4-hydroxyphenyl)imidazolidine-2,5-dione]",
69.3,42.43,CN1C(=O)N(c2ccc(F)c(Cl)c2)C(=O)C1c1ccc(O)cc1 (stereo not drawn) [Example 49],

SMILES,EC50 [nM],KSchild (nM) potency [1] [nM],KSchild (nM) potency [nM]
"CCC1(c2ccc(O)cc2)C(=O)N(c2ccc(C#N)c(C(F)(F)F)c2)C(=O)N1C (stereo not drawn) [Example 183, 4-[2,5-dioxo-4-ethyl-4-(4-hydroxyphenyl)-3-methylimidazolidin-1-yl]-2-trifluoromethylbenzonitrile]",,2,
"CC1(c2ccc(O)cc2)C(=O)N(c2ccc(C#N)c(C(F)(F)F)c2)C(=O)N1CS(C)(=O)=O (stereo not drawn) [Example 222.3, 4-[2,5-dioxo-4-(4-hydroxyphenyl)-4-methyl-3-[(methylsulphonyl)methyl]imidazolidin-1-yl]-2-trifluoromethylbenzonitrile]",,200,
